Source: PubChem BioAssay AID2060606 (Molecular Pharmacology Branch, DTP, NCI, 2025)
One block for each molecule: values may come before it.

Test system: 922993-354-T-J3-PDC complex spheroids, viability, % test/control
Test: Anticancer human tumor 922993-354-T-J3-PDC patient-derived endometrial carcinoma cell line growth inhibition [CLK]
Conditions: for IC50: curve of first compound; for viability, T/C: stronger effect = lower value
Method in brief: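 Multi-cell-type spheroids combined patient-derived tumor cells with HUVEC endothelial cells and human mesenchymal stem cells. Paired agents were dosed in half-log steps down from about clinical Cmax, or from 10 microM where Cmax was unknown.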

[1] = second compound 0.0316 µM, first compound 0.0316 µM
[2] = second compound 0.0316 µM, first compound 0.1 µM
[3] = second compound 0.0316 µM, first compound 0.316 µM
[4] = second compound 0.0316 µM, first compound 1 µM
[5] = second compound 0.0316 µM, first compound 3.16 µM
[6] = second compound 0.0316 µM, first compound 10 µM
[7] = second compound 0.1 µM, first compound 0.0316 µM
[8] = second compound 0.1 µM, first compound 0.1 µM
[9] = second compound 0.1 µM, first compound 0.316 µM
[10] = second compound 0.1 µM, first compound 1 µM
[11] = second compound 0.1 µM, first compound 3.16 µM
[12] = second compound 0.1 µM, first compound 10 µM
[13] = second compound 0.316 µM, first compound 0.0316 µM
[14] = second compound 0.316 µM, first compound 0.1 µM
[15] = second compound 0.316 µM, first compound 0.316 µM
[16] = second compound 0.316 µM, first compound 1 µM
[17] = second compound 0.316 µM, first compound 3.16 µM
[18] = second compound 0.316 µM, first compound 10 µM
[19] = second compound 1 µM, first compound 0.0316 µM
[20] = second compound 1 µM, first compound 0.1 µM
[21] = second compound 1 µM, first compound 0.316 µM
[22] = second compound 1 µM, first compound 1 µM
[23] = second compound 1 µM, first compound 3.16 µM
[24] = second compound 1 µM, first compound 10 µM
[25] = second compound 3.16 µM, first compound 0.0316 µM
[26] = second compound 3.16 µM, first compound 0.1 µM
[27] = second compound 3.16 µM, first compound 0.316 µM
[28] = second compound 3.16 µM, first compound 1 µM
[29] = second compound 3.16 µM, first compound 3.16 µM
[30] = second compound 3.16 µM, first compound 10 µM
[31] = second compound 10 µM, first compound 0.0316 µM
[32] = second compound 10 µM, first compound 0.1 µM
[33] = second compound 10 µM, first compound 0.316 µM
[34] = second compound 10 µM, first compound 1 µM
[35] = second compound 10 µM, first compound 3.16 µM
[36] = second compound 10 µM, first compound 10 µM
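Also: spheroids exposed to the agents for 7 days before readout.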

IC50 (second compound 0.0316 µM): < 31.6 nM | IC50 (second compound 0.1 µM): < 31.6 nM | IC50 (second compound 0.316 µM): < 31.6 nM | IC50 (second compound 1 µM): < 31.6 nM | IC50 (second compound 3.16 µM): < 31.6 nM | IC50 (second compound 10 µM): < 31.6 nM
Compound: Nc1ccn(C2OC(CO)C(O)C2(F)F)c(=O)n1 (centres undefined) + CNC(=O)c1ccc(Nc2nc(OC3CCCC3)c3c(-c4ccc5nc(C)oc5c4)c[nH]c3n2)c(OC)c1
viability, T/C [1]: 15.7% | viability, T/C [2]: 17.5% | viability, T/C [3]: 18% | viability, T/C [4]: 16.6% | viability, T/C [5]: 15.5% | viability, T/C [6]: 18.3% | viability, T/C [7]: 17.9% | viability, T/C [8]: 16.2% | viability, T/C [9]: 15.7% | viability, T/C [10]: 14.9% | viability, T/C [11]: 12.5% | viability, T/C [12]: 17.3% | viability, T/C [13]: 15.7% | viability, T/C [14]: 15.5% | viability, T/C [15]: 16.5% | viability, T/C [16]: 18.1% | viability, T/C [17]: 16.9% | viability, T/C [18]: 17.2% | viability, T/C [19]: 14.7% | viability, T/C [20]: 14.6% | viability, T/C [21]: 12.9% | viability, T/C [22]: 13.3% | viability, T/C [23]: 14.8% | viability, T/C [24]: 13.2% | viability, T/C [25]: 13.6% | viability, T/C [26]: 15.8% | viability, T/C [27]: 11.8% | viability, T/C [28]: 12.4% | viability, T/C [29]: 12.9% | viability, T/C [30]: 13.1% | viability, T/C [31]: 13% | viability, T/C [32]: 12.5% | viability, T/C [33]: 10.8% | viability, T/C [34]: 11.6% | viability, T/C [35]: 12.7% | viability, T/C [36]: 11.4%

IC50 (second compound 0.0316 µM): 7510 nM | IC50 (second compound 0.1 µM): 4990 nM | IC50 (second compound 0.316 µM): 4060 nM | IC50 (second compound 1 µM): < 31.6 nM | IC50 (second compound 3.16 µM): < 31.6 nM | IC50 (second compound 10 µM): < 31.6 nM
Compound: O=c1[nH]cc(F)c(=O)[nH]1 + CNC(=O)c1ccc(Nc2nc(OC3CCCC3)c3c(-c4ccc5nc(C)oc5c4)c[nH]c3n2)c(OC)c1
viability, T/C [1]: 110% | viability, T/C [2]: 104% | viability, T/C [3]: 103% | viability, T/C [4]: 103% | viability, T/C [5]: 75.5% | viability, T/C [6]: 41.6% | viability, T/C [7]: 91.3% | viability, T/C [8]: 119% | viability, T/C [9]: 106% | viability, T/C [10]: 98.2% | viability, T/C [11]: 64.3% | viability, T/C [12]: 28.3% | viability, T/C [13]: 68% | viability, T/C [14]: 64% | viability, T/C [15]: 57.7% | viability, T/C [16]: 60.7% | viability, T/C [17]: 56.5% | viability, T/C [18]: 29.9% | viability, T/C [19]: 34% | viability, T/C [20]: 40.4% | viability, T/C [21]: 33.7% | viability, T/C [22]: 31.7% | viability, T/C [23]: 32.9% | viability, T/C [24]: 23.9% | viability, T/C [25]: 33.4% | viability, T/C [26]: 37.3% | viability, T/C [27]: 31.5% | viability, T/C [28]: 29.5% | viability, T/C [29]: 28.5% | viability, T/C [30]: 20.8% | viability, T/C [31]: 35.1% | viability, T/C [32]: 30.4% | viability, T/C [33]: 29% | viability, T/C [34]: 29% | viability, T/C [35]: 31.2% | viability, T/C [36]: 19.7%
